Data reported in ChEMBL document CHEMBL4689842, “EUbOPEN Chemogenomics Library wave 1” (2021).

Key:
Assay type in all cases: toxicity, cell-based
[1] = test system: HEK-293T; assay: Incucyte cell viability with HEK293T; conditions: human, 10 µM, compound concentration 10 uM
[2] = test system: Fibroblast; assay: Incucyte cell viability with human fibroblast; conditions: 10 µM, compound concentration 10 uM
[3] = test system: U2OS; assay: Incucyte cell viability with U2OS; conditions: human, 10 µM, compound concentration 10 uM
[4] = 0 h, replicate number 1, timepoint 0 hours
[5] = 6 h, replicate number 1, timepoint 6 hours
[6] = 12 h, replicate number 1, timepoint 12 hours
[7] = 18 h, replicate number 1, timepoint 18 hours
[8] = 24 h, replicate number 1, timepoint 24 hours
[9] = 12 h, replicate number 2, timepoint 12 hours
[10] = 6 h, replicate number 2, timepoint 6 hours
[11] = 24 h, replicate number 2, timepoint 24 hours
[12] = 18 h, replicate number 2, timepoint 18 hours
[13] = 0 h, replicate number 2, timepoint 0 hours
Also: filed as whole numbers so only -1 and 0 and 1 occur.

## CCCc1nc2c(C)cc(-c3nc4ccccc4n3C)cc2n1Cc1ccc(-c2ccccc2C(=O)O)cc1
[1]; [4]
  Growth Rate: 0
[1]; [5]
  Growth Rate: 0
[1]; [6]
  Growth Rate: 0
[1]; [7]
  Growth Rate: 0
[1]; [8]
  Growth Rate: 0
[2]; [4]
  Growth Rate: 0
[2]; [5]
  Growth Rate: 1
[2]; [6]
  Growth Rate: 0
[2]; [9]
  Growth Rate: 1
[2]; [7]
  Growth Rate: 1
[2]; [8]
  Growth Rate: 0
[3]; [4]
  Growth Rate: 0
[3]; [10]
  Growth Rate: 1
[3]; [6]
  Growth Rate: 1
[3]; [7]
  Growth Rate: 1
[3]; [8]
  Growth Rate: 1
[3]; [11]
  Growth Rate: 0

## CC1(C)CCC(C)(C)c2cc(C3(c4ccc(C(=O)O)cc4)OCCO3)ccc21
[1]; [4]
  Growth Rate: 0
[1]; [10]
  Growth Rate: 0
[1]; [6]
  Growth Rate: 1
[1]; [7]
  Growth Rate: 1
[1]; [8]
  Growth Rate: 1
[2]; [4]
  Growth Rate: 0
[2]; [5]
  Growth Rate: 1
[2]; [6]
  Growth Rate: 1
[2]; [7]
  Growth Rate: 1
[2]; [8]
  Growth Rate: 1
[3]; [4]
  Growth Rate: 0
[3]; [10]
  Growth Rate: 0
[3]; [6]
  Growth Rate: 1
[3]; [9]
  Growth Rate: 0
[3]; [7]
  Growth Rate: 1
[3]; [12]
  Growth Rate: 0
[3]; [8]
  Growth Rate: 1

## CC(C)(C)NCC(O)COc1cccc2[nH]c(=O)[nH]c12.Cl (stereo not drawn)
[1]; [4]
  Growth Rate: 1
[1]; [13]
  Growth Rate: 0
[1]; [5]
  Growth Rate: 0
[1]; [6]
  Growth Rate: 0
[1]; [7]
  Growth Rate: 1
[1]; [8]
  Growth Rate: 1
[1]; [11]
  Growth Rate: 0
[2]; [4]
  Growth Rate: 0
[2]; [10]
  Growth Rate: 0
[2]; [6]
  Growth Rate: 1
[2]; [9]
  Growth Rate: 0
[2]; [7]
  Growth Rate: 1
[2]; [8]
  Growth Rate: 1
[3]; [4]
  Growth Rate: 0
[3]; [10]
  Growth Rate: 0
[3]; [6]
  Growth Rate: 1
[3]; [7]
  Growth Rate: 1
[3]; [8]
  Growth Rate: 1

## CCCCN1CCC(COC(=O)c2cc(Cl)c(N)c3c2OCCO3)CC1.Cl
[1]; [4]
  Growth Rate: 1
[1]; [13]
  Growth Rate: 0
[1]; [5]
  Growth Rate: 0
[1]; [10]
  Growth Rate: 1
[1]; [6]
  Growth Rate: 0
[1]; [9]
  Growth Rate: 1
[1]; [7]
  Growth Rate: 0
[1]; [12]
  Growth Rate: 1
[1]; [8]
  Growth Rate: 0
[2]; [4]
  Growth Rate: 0
[2]; [10]
  Growth Rate: 0
[2]; [9]
  Growth Rate: 0
[2]; [7]
  Growth Rate: 1
[2]; [12]
  Growth Rate: 0
[2]; [8]
  Growth Rate: 1
[2]; [11]
  Growth Rate: 0
[3]; [4]
  Growth Rate: 1
[3]; [5]
  Growth Rate: 1
[3]; [10]
  Growth Rate: 0
[3]; [6]
  Growth Rate: 1
[3]; [9]
  Growth Rate: 0
[3]; [7]
  Growth Rate: 1
[3]; [12]
  Growth Rate: 0
[3]; [8]
  Growth Rate: 1
[3]; [11]
  Growth Rate: 0

## N[C@H](C(=O)O)c1ccc(C(=O)O)c(C(=O)O)c1
[1]; [4]
  Growth Rate: 0
[1]; [5]
  Growth Rate: 1
[1]; [6]
  Growth Rate: 1
[1]; [7]
  Growth Rate: 1
[1]; [8]
  Growth Rate: 1
[2]; [4]
  Growth Rate: 0
[2]; [5]
  Growth Rate: 1
[2]; [6]
  Growth Rate: 1
[2]; [7]
  Growth Rate: 1
[2]; [8]
  Growth Rate: 0
[3]; [4]
  Growth Rate: 0
[3]; [10]
  Growth Rate: 1
[3]; [6]
  Growth Rate: 1
[3]; [7]
  Growth Rate: 1
[3]; [8]
  Growth Rate: 1

## Cc1c(C(=O)NC2CCCCC2)sc2nc3ccc(N)cc3n12.Cl
[1]; [4]
  Growth Rate: 0
[1]; [5]
  Growth Rate: 0
[1]; [6]
  Growth Rate: 0
[1]; [7]
  Growth Rate: 0
[1]; [8]
  Growth Rate: 0
[2]; [4]
  Growth Rate: 0
[2]; [5]
  Growth Rate: 0
[2]; [6]
  Growth Rate: 1
[2]; [12]
  Growth Rate: 1
[2]; [8]
  Growth Rate: 1
[3]; [4]
  Growth Rate: 0
[3]; [5]
  Growth Rate: 1
[3]; [10]
  Growth Rate: 0
[3]; [6]
  Growth Rate: 1
[3]; [7]
  Growth Rate: 1
[3]; [8]
  Growth Rate: 1

## Br.Br.N=C(N)SCCc1c[nH]cn1
[1]; [4]
  Growth Rate: 1
[1]; [13]
  Growth Rate: 0
[1]; [5]
  Growth Rate: 1
[1]; [6]
  Growth Rate: 1
[1]; [7]
  Growth Rate: 1
[1]; [12]
  Growth Rate: 0
[1]; [8]
  Growth Rate: 1
[1]; [11]
  Growth Rate: 0
[2]; [4]
  Growth Rate: 0
[2]; [5]
  Growth Rate: 0
[2]; [6]
  Growth Rate: 0
[2]; [7]
  Growth Rate: 1
[2]; [12]
  Growth Rate: 0
[2]; [8]
  Growth Rate: 1
[2]; [11]
  Growth Rate: 0
[3]; [4]
  Growth Rate: 0
[3]; [5]
  Growth Rate: 0
[3]; [6]
  Growth Rate: 1
[3]; [9]
  Growth Rate: 0
[3]; [7]
  Growth Rate: 0
[3]; [12]
  Growth Rate: 1
[3]; [8]
  Growth Rate: 0

## CSc1ccc(C(=O)N[C@@H]2CCCC[C@@H]2NC(=O)CNC(=O)c2cc(C(F)(F)F)ccc2NC(=O)NC(C)C)cc1
[1]; [4]
  Growth Rate: 1
[1]; [13]
  Growth Rate: 0
[1]; [5]
  Growth Rate: 0
[1]; [10]
  Growth Rate: 1
[1]; [6]
  Growth Rate: 0
[1]; [7]
  Growth Rate: 0
[1]; [8]
  Growth Rate: 0
[2]; [4]
  Growth Rate: 0
[2]; [5]
  Growth Rate: 1
[2]; [6]
  Growth Rate: 1
[2]; [7]
  Growth Rate: 1
[2]; [8]
  Growth Rate: 0
[2]; [11]
  Growth Rate: 1
[3]; [4]
  Growth Rate: 0
[3]; [10]
  Growth Rate: 0
[3]; [6]
  Growth Rate: 1
[3]; [9]
  Growth Rate: 0
[3]; [7]
  Growth Rate: 0
[3]; [12]
  Growth Rate: 1
[3]; [8]
  Growth Rate: 0
[3]; [11]
  Growth Rate: 1

## COc1cccc(OC)c1-c1cc(C(=O)NC2(C(=O)O)C3CC4CC(C3)CC2C4)nn1-c1ccc(C(=O)N(C)CCCN(C)C)cc1C(C)C (stereo not drawn)
[1]; [4]
  Growth Rate: 1
[1]; [13]
  Growth Rate: 0
[1]; [5]
  Growth Rate: 0
[1]; [10]
  Growth Rate: 1
[1]; [6]
  Growth Rate: 0
[1]; [9]
  Growth Rate: 1
[1]; [7]
  Growth Rate: 1
[1]; [12]
  Growth Rate: 0
[1]; [8]
  Growth Rate: 1
[2]; [4]
  Growth Rate: 0
[2]; [5]
  Growth Rate: 0
[2]; [6]
  Growth Rate: 0
[2]; [7]
  Growth Rate: 0
[2]; [12]
  Growth Rate: 1
[2]; [8]
  Growth Rate: 0
[2]; [11]
  Growth Rate: 1
[3]; [13]
  Growth Rate: 0
[3]; [10]
  Growth Rate: 0
[3]; [6]
  Growth Rate: 1
[3]; [9]
  Growth Rate: 0
[3]; [7]
  Growth Rate: 0
[3]; [8]
  Growth Rate: 0
[3]; [11]
  Growth Rate: 1

## COc1cc2c(cc1OCCCN1CCCC1)N=C(N)C21CCC1
[1]; [4]
  Growth Rate: 0
[2]; [4]
  Growth Rate: 0
[2]; [9]
  Growth Rate: 0
[2]; [7]
  Growth Rate: 1
[2]; [8]
  Growth Rate: 1
[3]; [4]
  Growth Rate: 0
[3]; [5]
  Growth Rate: 1
[3]; [6]
  Growth Rate: 1
[3]; [7]
  Growth Rate: 1
[3]; [8]
  Growth Rate: 1

## N#Cc1c(O)nc(SCc2cccc(F)c2F)nc1C1CC1
[1]; [4]
  Growth Rate: 0
[1]; [5]
  Growth Rate: 1
[1]; [6]
  Growth Rate: 1
[1]; [7]
  Growth Rate: 1
[1]; [8]
  Growth Rate: 1
[1]; [11]
  Growth Rate: 0
[2]; [4]
  Growth Rate: 0
[2]; [5]
  Growth Rate: 1
[2]; [6]
  Growth Rate: 1
[2]; [7]
  Growth Rate: 1
[2]; [8]
  Growth Rate: 1
[3]; [4]
  Growth Rate: 0
[3]; [6]
  Growth Rate: 1
[3]; [7]
  Growth Rate: 1
[3]; [8]
  Growth Rate: 1

## Clc1cccc(-c2nnnn2Cc2cccnc2)c1Cl
[1]; [4]
  Growth Rate: 1
[1]; [13]
  Growth Rate: 0
[1]; [5]
  Growth Rate: 1
[1]; [10]
  Growth Rate: 0
[1]; [6]
  Growth Rate: 1
[1]; [7]
  Growth Rate: 1
[1]; [8]
  Growth Rate: 1
[1]; [11]
  Growth Rate: 0
[2]; [4]
  Growth Rate: 0
[2]; [5]
  Growth Rate: 1
[2]; [10]
  Growth Rate: 0
[2]; [6]
  Growth Rate: 0
[2]; [7]
  Growth Rate: 0
[2]; [8]
  Growth Rate: 0
[3]; [5]
  Growth Rate: 1
[3]; [10]
  Growth Rate: 0
[3]; [6]
  Growth Rate: 0
[3]; [9]
  Growth Rate: 1
[3]; [7]
  Growth Rate: 0
[3]; [12]
  Growth Rate: 1
[3]; [8]
  Growth Rate: 1

## N#Cc1ccc(NC(=O)Nc2ccccc2Br)c2nn[nH]c12
[1]; [4]
  Growth Rate: 0
[1]; [10]
  Growth Rate: 1
[1]; [6]
  Growth Rate: 1
[1]; [7]
  Growth Rate: 1
[1]; [8]
  Growth Rate: 1
[2]; [4]
  Growth Rate: 0
[2]; [13]
  Growth Rate: 1
[2]; [5]
  Growth Rate: 1
[2]; [6]
  Growth Rate: 1
[2]; [7]
  Growth Rate: 1
[2]; [8]
  Growth Rate: 1
[3]; [4]
  Growth Rate: 0
[3]; [13]
  Growth Rate: 1
[3]; [10]
  Growth Rate: 1
[3]; [6]
  Growth Rate: 1
[3]; [7]
  Growth Rate: 1
[3]; [8]
  Growth Rate: 1

## C[C@@H](c1cccc(CN)c1)n1cc(Cl)cc(C(N)=O)c1=N.Cl
[1]; [4]
  Growth Rate: 0
[1]; [13]
  Growth Rate: 1
[1]; [8]
  Growth Rate: 1
[2]; [13]
  Growth Rate: 0
[2]; [5]
  Growth Rate: 1
[2]; [10]
  Growth Rate: 0
[2]; [6]
  Growth Rate: 1
[2]; [9]
  Growth Rate: 0
[2]; [7]
  Growth Rate: 1
[2]; [12]
  Growth Rate: 0
[2]; [8]
  Growth Rate: 1
[2]; [11]
  Growth Rate: 0
[3]; [13]
  Growth Rate: 1
[3]; [5]
  Growth Rate: 1
[3]; [10]
  Growth Rate: 0
[3]; [6]
  Growth Rate: 1
[3]; [9]
  Growth Rate: 0
[3]; [7]
  Growth Rate: 1
[3]; [12]
  Growth Rate: 0
[3]; [8]
  Growth Rate: 1
[3]; [11]
  Growth Rate: 0

## CS(=O)(=O)c1cccc(NC(=O)N(Cc2ccc(C(=O)Nc3nn[nH]n3)cc2)c2ccc(C3CCCCC3)cc2)c1
[1]; [4]
  Growth Rate: 1
[1]; [13]
  Growth Rate: 0
[1]; [5]
  Growth Rate: 1
[1]; [10]
  Growth Rate: 0
[1]; [6]
  Growth Rate: 1
[1]; [9]
  Growth Rate: 0
[1]; [7]
  Growth Rate: 1
[1]; [12]
  Growth Rate: 0
[1]; [8]
  Growth Rate: 1
[1]; [11]
  Growth Rate: 0
[2]; [4]
  Growth Rate: 0
[2]; [5]
  Growth Rate: 0
[2]; [6]
  Growth Rate: 0
[2]; [7]
  Growth Rate: 0
[2]; [8]
  Growth Rate: 1
[3]; [4]
  Growth Rate: 0
[3]; [10]
  Growth Rate: 1
[3]; [9]
  Growth Rate: 1
[3]; [7]
  Growth Rate: 1
[3]; [8]
  Growth Rate: 1

## Cc1c(OCc2cccc(-c3ccc(C(=O)O)cc3)c2)cc2c(c1C)C(=O)C(C1CCCC1)C2 (stereo not drawn)
[1]; [4]
  Growth Rate: 0
[1]; [5]
  Growth Rate: 0
[1]; [6]
  Growth Rate: 0
[1]; [7]
  Growth Rate: 0
[1]; [8]
  Growth Rate: 0
[1]; [11]
  Growth Rate: 1
[2]; [4]
  Growth Rate: 0
[2]; [5]
  Growth Rate: 0
[2]; [6]
  Growth Rate: 0
[2]; [7]
  Growth Rate: 0
[2]; [8]
  Growth Rate: 0
[3]; [4]
  Growth Rate: 0
[3]; [6]
  Growth Rate: 1
[3]; [7]
  Growth Rate: 1
[3]; [8]
  Growth Rate: 1
